Literature values, collected in patent US20260308141A1, “SYNTHESIS OF ORELLANINE” (ONCORENA AB, priority 2023, published 2026).

Legend:
human renal cancer cells [1] = tested on: human renal cancer cells
human renal cancer cells [2] = tested on: human renal cancer cells; remark: listed apart in the source

[O-][n+]1ccc(O)c(O)c1-c1c(O)c(O)cc[n+]1[O-] [Orellanine]
progress of cell death (human renal cancer cells [1]; after transient exposure to Orellanine): progressed for many days | killing of human renal cancer cells (human renal cancer cells [1]; cells derived from a primary tumor or from metastatic tumor tissue): killed them with great efficiency | active uptake and retention by the cells (inferred from progressing cell death) (human renal cancer cells [2]; after transient exposure): actively taken up and retained by the cells | uptake in human renal cancer cells (human renal cancer cells [2]; human renal cancer cells, primary or metastatic): taken up in human renal cancer cells
